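In this assay, cells in 96-well plates receive the compound at five concentrations for 48 hours. Endpoints are linearly interpolated between the surrounding concentrations. GI50 is the concentration that inhibits growth by half.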 The source made the active and inactive calls. No stated cut-off is given here; in the data, active = GI50 up to about 1.1 µM and inactive = higher.
What was measured:
Test in all cases: NCI anticancer screen, dose series, 48 h
[1] = tested on: SNB-78
[2] = tested on: DLD-1
[3] = tested on: XF498
[4] = tested on: KM-20L2
[5] = tested on: HOP-18
[6] = tested on: DMS-114
[7] = tested on: LXFL 529
[8] = tested on: M19-MEL
[9] = tested on: RXF 631

Compound | GI50 [1] | GI50 [2] | GI50 [3] | GI50 [4] | GI50 [5] | GI50 [6] | GI50 [7] | GI50 [8] | GI50 [9]
O=C(N/C(=C\c1cccc([N+](=O)[O-])c1)c1nc2c3c(ccc2[nH]1)C(=O)c1ccccc1C3=O)c1ccccc1 | > 100 µM (inactive) | 12.2 µM (inactive) | 57.9 µM (inactive) | 30.2 µM (inactive) | > 100 µM (inactive) | 26.4 µM (inactive) | 16 µM (inactive) | – | –
C=C1C(=O)OC2C=C(CCC(C)=O)C(C)C(OC(C)=O)CC12 (stereo not drawn) | 7.94 µM (inactive) | – | 12.9 µM (inactive) | 4.89 µM (inactive) | 11.7 µM (inactive) | – | 0.447 µM (active) | 14.6 µM (inactive) | –
COC1(C)C(=O)N2C1N(C(=O)OCc1ccccc1)CC2(C)C (stereo not drawn) | – | > 100 µM (inactive) | > 100 µM (inactive) | > 100 µM (inactive) | – | > 100 µM (inactive) | > 100 µM (inactive) | > 100 µM (inactive) | –
O=C(CC1(O)C(=O)Nc2c(Cl)cc(Cl)cc21)c1ccc(F)cc1 (stereo not drawn) | 83.9 µM (inactive) | 46.8 µM (inactive) | 14.4 µM (inactive) | 53 µM (inactive) | 72.1 µM (inactive) | 23.9 µM (inactive) | 31.9 µM (inactive) | 19 µM (inactive) | 32.5 µM (inactive)
O=C1C(=Cc2cccs2)C(=O)N(CCc2ccccc2)S(=O)(=O)N1CCc1ccccc1 | > 50 µM (inactive) | > 50 µM (inactive) | > 50 µM (inactive) | > 50 µM (inactive) | > 50 µM (inactive) | 10.4 µM (inactive) | > 50 µM (inactive) | > 50 µM (inactive) | –
C=CCC1(CN(C)C)CC/C(=C\c2ccc(Cl)cc2)C1=O (stereo not drawn) | 27.4 µM (inactive) | 32.1 µM (inactive) | 77.6 µM (inactive) | 22.8 µM (inactive) | > 54.1 µM (inactive) | 27.4 µM (inactive) | 27.5 µM (inactive) | 32.3 µM (inactive) | –
COC(=O)CCSC(=O)Nc1ccccc1Cl | > 100 µM (inactive) | > 100 µM (inactive) | – | > 100 µM (inactive) | – | > 100 µM (inactive) | > 100 µM (inactive) | – | –
COc1ccc2c(c1)c(=O)c1c(NCCN(C)C)ccc3nnn2c31 | 4.35 µM (inactive) | 1.71 µM (inactive) | – | 1.15 µM (inactive) | 0.504 µM (active) | 3.64 µM (inactive) | 2.91 µM (inactive) | 6.61 µM (inactive) | 2.21 µM (inactive)
COc1ccc(-c2oc3cc(O)c(OC)c(O)c3c(=O)c2O)cc1 [BETULETOL] | 81.3 µM (inactive) | 13.4 µM (inactive) | 24.9 µM (inactive) | 39.7 µM (inactive) | 67.3 µM (inactive) | – | 20.1 µM (inactive) | 38.8 µM (inactive) | 21.5 µM (inactive)
COC1OC(C)C2OC(C)(C)OC2C1OC(C)=O (stereo not drawn) | > 100 µM (inactive) | > 100 µM (inactive) | > 100 µM (inactive) | > 100 µM (inactive) | > 100 µM (inactive) | – | > 100 µM (inactive) | > 100 µM (inactive) | > 100 µM (inactive)
CCOC(=O)C1S/C(=N\C(=N)N[N+](=O)[O-])N=C1C (stereo not drawn) | – | > 100 µM (inactive) | > 100 µM (inactive) | > 100 µM (inactive) | > 100 µM (inactive) | > 100 µM (inactive) | > 100 µM (inactive) | > 100 µM (inactive) | –
C[C@]12CC[C@H](OCCC#N)CC1=CC[C@@H]1C2CC[C@]2(C)/C(=N/OCCC#N)CCC12 (stereo partly drawn) | 22.8 µM (inactive) | > 100 µM (inactive) | 3.4 µM (inactive) | > 100 µM (inactive) | > 100 µM (inactive) | 5.12 µM (inactive) | > 74.6 µM (inactive) | > 100 µM (inactive) | –
COCCOCC(=O)N(CCn1ccc(NC(c2ccccc2)(c2ccccc2)c2ccccc2)nc1=O)CCn1cnc2nc(N)[nH]c(=O)c21 | > 100 µM (inactive) | > 100 µM (inactive) | – | > 100 µM (inactive) | > 100 µM (inactive) | > 100 µM (inactive) | > 100 µM (inactive) | – | > 100 µM (inactive)
CC(=O)OC[C@@H]1[C@H]2CC(=O)O[C@H]2C[C@H]1OC(C)=O | > 100 µM (inactive) | > 100 µM (inactive) | – | > 100 µM (inactive) | > 100 µM (inactive) | > 100 µM (inactive) | > 100 µM (inactive) | > 100 µM (inactive) | –
Nc1ccn([C@@H]2C=C(CO)[C@@H](O)[C@H]2O)c(=O)n1 | 3.28 µM (inactive) | 0.151 µM (active) | 6.22 µM (inactive) | 0.0912 µM (active) | 8.09 µM (inactive) | 0.417 µM (active) | – | 0.308 µM (active) | –
Cc1ccc(/C=N/NS(=O)(=O)c2ccccc2)cc1 | > 100 µM (inactive) | > 100 µM (inactive) | > 100 µM (inactive) | > 100 µM (inactive) | > 100 µM (inactive) | > 100 µM (inactive) | > 100 µM (inactive) | – | > 100 µM (inactive)
CC1(C)C(O)OC(O)C1(C)C (stereo not drawn) | > 100 µM (inactive) | 52.5 µM (inactive) | 47 µM (inactive) | > 100 µM (inactive) | 49.1 µM (inactive) | > 100 µM (inactive) | 74 µM (inactive) | > 100 µM (inactive) | 61 µM (inactive)
COc1ccc(C(c2ccc(C(C)C)cc(OC)c2=O)c2ccc(C(C)C)cc(OC)c2=O)cc1 | 13.2 µM (inactive) | 6.3 µM (inactive) | 20.4 µM (inactive) | 14.1 µM (inactive) | 25.4 µM (inactive) | 12.3 µM (inactive) | 14.5 µM (inactive) | 14.1 µM (inactive) | 15 µM (inactive)
CC[C@@]1(OC(=O)C(N)CCCCN)C(=O)OCc2c1cc1n(c2=O)Cc2cc3ccccc3nc2-1 (stereo partly drawn) | 0.372 µM (active) | 0.494 µM (active) | 0.201 µM (active) | 0.166 µM (active) | 0.0785 µM (active) | < 0.0157 µM (active) | 0.372 µM (active) | 0.0619 µM (active) | –
